# Assay results taken from paper doi:10.1101/2021.03.24.436736v2 (biorxiv, 2023).
# Tests used:
# PxRDL2 [1] = biological target: T1, PxRDL2 (Plutella xylostella, UniProt C0L7I7); experiment: cell-based; design: species or system Xenopus laevis oocytes
# T1 sequence (C0L7I7 30-520): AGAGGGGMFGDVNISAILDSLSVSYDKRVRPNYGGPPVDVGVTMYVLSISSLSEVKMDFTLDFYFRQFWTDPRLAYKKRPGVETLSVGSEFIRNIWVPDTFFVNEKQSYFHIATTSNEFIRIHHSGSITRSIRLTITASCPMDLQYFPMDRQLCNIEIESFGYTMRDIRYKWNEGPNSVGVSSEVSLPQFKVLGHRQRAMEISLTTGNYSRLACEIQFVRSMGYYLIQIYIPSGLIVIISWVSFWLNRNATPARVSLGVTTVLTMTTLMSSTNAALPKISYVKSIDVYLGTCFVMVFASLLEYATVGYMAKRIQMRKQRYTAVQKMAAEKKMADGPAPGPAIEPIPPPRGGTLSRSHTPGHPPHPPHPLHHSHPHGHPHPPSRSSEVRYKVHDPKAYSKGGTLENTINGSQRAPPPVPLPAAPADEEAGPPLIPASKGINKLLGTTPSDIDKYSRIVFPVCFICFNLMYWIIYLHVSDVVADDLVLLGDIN
# PxRDL1 = biological target: T2, PxRDL1 (Plutella xylostella, UniProt C0L7I5); experiment: two-electrode voltage clamp, Xenopus laevis oocytes; type: cell-based
# T2 sequence (C0L7I5 26-485): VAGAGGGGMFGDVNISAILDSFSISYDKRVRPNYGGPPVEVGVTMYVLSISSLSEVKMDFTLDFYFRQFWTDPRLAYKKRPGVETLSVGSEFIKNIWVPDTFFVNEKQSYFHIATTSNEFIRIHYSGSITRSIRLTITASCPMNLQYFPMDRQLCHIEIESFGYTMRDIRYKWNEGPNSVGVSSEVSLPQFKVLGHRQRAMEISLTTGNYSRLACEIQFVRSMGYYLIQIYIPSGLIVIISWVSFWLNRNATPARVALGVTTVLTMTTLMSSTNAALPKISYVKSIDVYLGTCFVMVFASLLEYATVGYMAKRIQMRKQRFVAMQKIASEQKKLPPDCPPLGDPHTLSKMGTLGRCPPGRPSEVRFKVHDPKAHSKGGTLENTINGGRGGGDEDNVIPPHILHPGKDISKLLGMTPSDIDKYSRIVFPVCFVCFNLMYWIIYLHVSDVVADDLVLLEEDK
# PxRDL2 [2] = biological target: T1, PxRDL2; experiment: as above; type: cell-based
SMILES,IC50 (PxRDL2 [1]) [nM],IC50 (PxRDL1) [nM],IC50 (PxRDL2 [2]) [nM]
"CCOC(=O)C1(C(=O)OCC)Nc2c([S+]([O-])C(F)(F)F)c(C#N)nn2-c2c(Cl)cc(C(F)(F)F)cc21 (stereo not drawn) [4a, diethyl 9-chloro-2-cyano-7-(trifluoromethyl)-3-((trifluoromethyl)sulfinyl)pyrazolo[1,5-α]quin azoline-5,5(4H)-dicarboxylate]",> 30000,2020,–
"Cc1cc(C2=NOC(c3cc(Cl)cc(Cl)c3)(C(F)(F)F)C2)ccc1C(=O)NCC(=O)NCC(F)(F)F (stereo not drawn) [fluralaner, 4-[5-(3,5-dichlorophenyl)-5-(trifluoromethyl)-4H-1,2-oxazol-3-yl]-2-methyl-N-[2-oxo-2-(2,2,2-trifluoroethylamino)ethyl]benzamide]",–,10,18
"CON=CNC(=O)c1ccc(C2=NOC(c3cc(Cl)cc(Cl)c3)(C(F)(F)F)C2)cc1C (stereo not drawn) [fluxametamide, 4-[5-(3,5-dichlorophenyl)-5-(trifluoromethyl)-4H-1,2-oxazol-3-yl]-N-[(E)-methoxyiminomethyl]-2-methylbenzamide]",–,20,17
